1 compound from US20240009195A1, “NOVEL USES” (INTRA-CELLULAR THERAPIES, INC., priority 2020, published 2024) can be followed below.

SMILES strings stand for the structures.

Assay [1] addresses hPDE1A (Homo sapiens, UniProt P54750). The assay can be described thus: IMAP PDE assay, selectivity table. The class given is biochemical.
Text: (§1) The generation of GMP-fluorescein from cGMP-fluorescein can be quantitated, using, for example, the IMAP (Molecular Devices, Sunnyvale, CA) immobilized-metal affinity particle reagent.
(§2) Briefly, the IMAP reagent binds with high affinity to the free 5′-phosphate that is found in GMP-fluorescein and not in cGMP-fluorescein. The resulting GMP-fluorescein-IMAP complex is large relative to cGMP-fluorescein. Small fluorophores that are bound up in a large, slowly tumbling, complex can be distinguished from unbound fluorophores, because the photons emitted as they fluoresce retain the same polarity as the photons used to excite the fluorescence.
(§3) In the phosphodiesterase assay, cGMP-fluorescein, which cannot be bound to IMAP, and therefore retains little fluorescence polarization, is converted to GMP-fluorescein, which, when bound to IMAP, yields a large increase in fluorescence polarization (Amp). Inhibition of phosphodiesterase, therefore, is detected as a decrease in Amp. […]
(§4) The reaction is incubated in dark at room temperature for 15 min. […] The plate is incubated at room temperature for 1 hour to allow IMAP binding to proceed to completion, and then placed in an Envision multimode microplate reader (PerkinElmer, Shelton, CT) to measure the fluorescence polarization (Amp).
(§5) A decrease in GMP concentration, measured as decreased Amp, is indicative of inhibition of PDE activity.
For assay [2], the system named is guinea pig cardiomyocytes. The assay can be described thus: Glucagon co-administration with PDE1 inhibitor in guinea pig cardiomyocytes (sarcomere shortening, Ca2+ transients). The settings on record: glucagon (1 μM) plus Compound 1 (1 μM) vs glucagon alone, 37° C., pacing at 1 Hz. The class given is cell-based. As to the method: Studies were carried out to test the effect of glucagon co-administration with a PDE1 inhibitor in guinea pig cardiomyocytes. Myocytes were isolated according to Liu et al., Circulation Research, 2014. A thoracotomy was performed on anesthetized guinea pigs to remove the heart. The aorta was cannulated on a Langendorf apparatus fitted with a heating jacket circulating water at 37° C., and were retrogradely perfused for 5 minutes at 8 ml/min. The perfusate was switched to a Tyrode's solution containing […] (Worthington) and protease type 14 (Sigma-Aldrich) for 7-9 minutes. The solution was switched to a modified Kraft-Bruhe (KB) buffer for 5 minutes, before being minced and filtered to yield single cells. Isolated cells were incubated in a modified KB buffer (Isenberg et al., Pflugers Arch, 1982] for an hour, before being placed in supplemented M199 ACCIT medium. (Ellingsen et al., American J Physiology, 1993) Cells were kept at room temperature, and used within 7 hours.
Changes in cell sarcomere shortening and Ca^2+ transients were measured using a customized IonOptix system previously described. (Hashimoto et al., Circulation, 2018). Briefly, cells were loaded using 1 μM Fura-2 for 15 minutes, and washed out for at least 20 minutes. Baseline recording was made in Tyrode's buffer described above, with 0.1% DMSO. […]

The target of assay [3] is hPDE1C (Homo sapiens, UniProt Q14123). The assay can be described thus: IMAP PDE assay, selectivity table. The class given is biochemical.
Chain of hPDE1C (Q14123 whole entry): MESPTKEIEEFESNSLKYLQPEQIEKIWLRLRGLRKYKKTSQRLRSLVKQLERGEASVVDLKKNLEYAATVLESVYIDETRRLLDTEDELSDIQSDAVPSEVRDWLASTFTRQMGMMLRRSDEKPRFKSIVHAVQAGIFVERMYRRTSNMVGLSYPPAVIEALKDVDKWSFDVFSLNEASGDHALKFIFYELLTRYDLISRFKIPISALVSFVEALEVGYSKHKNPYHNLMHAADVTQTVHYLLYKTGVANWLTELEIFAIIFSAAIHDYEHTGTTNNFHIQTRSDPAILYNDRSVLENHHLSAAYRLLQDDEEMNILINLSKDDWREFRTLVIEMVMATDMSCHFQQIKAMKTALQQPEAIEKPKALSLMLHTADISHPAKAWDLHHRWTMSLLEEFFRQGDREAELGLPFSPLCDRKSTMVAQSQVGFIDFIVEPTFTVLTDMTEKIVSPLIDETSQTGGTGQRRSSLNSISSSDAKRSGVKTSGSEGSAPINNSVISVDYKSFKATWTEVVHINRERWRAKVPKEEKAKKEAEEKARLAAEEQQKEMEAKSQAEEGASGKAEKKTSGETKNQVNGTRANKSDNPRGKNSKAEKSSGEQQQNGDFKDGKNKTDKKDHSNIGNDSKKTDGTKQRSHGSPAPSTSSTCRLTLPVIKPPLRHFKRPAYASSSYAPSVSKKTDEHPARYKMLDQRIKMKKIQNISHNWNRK
Text: as §1, §2, §3, §4, §5

Chain of hPDE1A (P54750 whole entry): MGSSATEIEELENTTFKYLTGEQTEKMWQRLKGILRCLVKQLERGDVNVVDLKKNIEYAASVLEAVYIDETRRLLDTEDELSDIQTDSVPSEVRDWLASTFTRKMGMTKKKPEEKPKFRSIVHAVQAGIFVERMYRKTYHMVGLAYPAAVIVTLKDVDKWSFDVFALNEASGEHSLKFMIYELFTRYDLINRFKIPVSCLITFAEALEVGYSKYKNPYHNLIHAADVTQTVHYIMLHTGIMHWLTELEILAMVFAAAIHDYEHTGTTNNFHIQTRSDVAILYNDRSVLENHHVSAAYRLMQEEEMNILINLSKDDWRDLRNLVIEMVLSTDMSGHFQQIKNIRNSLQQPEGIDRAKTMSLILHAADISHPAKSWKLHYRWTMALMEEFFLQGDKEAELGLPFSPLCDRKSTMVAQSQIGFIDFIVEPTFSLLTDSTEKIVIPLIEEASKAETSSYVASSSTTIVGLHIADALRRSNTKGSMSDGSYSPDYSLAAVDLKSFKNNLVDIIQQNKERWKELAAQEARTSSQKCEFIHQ

Turning to `CN1C(=O)c2c(nn(Cc3ccc(-c4cccc(F)n4)cc3)c2Nc2ccccc2)N2C1=N[C@@H]1CCC[C@@H]12` [Compound 1], the values for the IC50 in assay [1] and in assay [3] were 0.027 nM and 0.037 nM, respectively. The “change in cell sarcomere shortening” value in assay [2] (FIG. 1) is reported as “increased the beneficial effects of glucagon”. For the same compound, the “peak Ca2+ transient amplitude” value in assay [2] (FIG. 2) is listed as “increased the beneficial effects of glucagon”.

Broadly, the IC50 is the concentration that gives 50% inhibition. Higher therefore signals weaker potency in that assay.
